A melting point compilation (Tetko et al.; mined from patent text by program, amines drawn as free bases though some values may be those of a salt)

In the case of `CCC(=O)Nc1nc(-c2cc(C)cc(C)c2)c(-c2ccncc2)s1`, the melting point is reported as 291 to 293 °C.
Work on `COc1cc(CCC2OC(=O)NC2=O)ccc1OCc1nc(-c2ccccc2)oc1C` (stereo not drawn) yielded a melting point of 194 to 195 °C.
Work on `Cn1cccc1CCNc1nc(-c2cccnc2)nc2ccccc12` yielded a melting point of 140 to 142 °C.
Work on `N#CN=C(Nc1cccnc1)NC1CCCC1` yielded a melting point of 155 to 156 °C.
Compound `Nc1cc(Cl)c([N+](=O)[O-])cc1OC(=O)c1ccccc1` has a melting point of 199 to 201 °C.
`CC1(C)CC(N)CC(C)(C)N1Cc1ccccc1` showed a melting point of 73 to 75 °C.
In the case of `COc1ccc(C=C(C)[N+](=O)[O-])c(OC)c1OC`, the melting point is reported as 57 to 58 °C.
Work on `COC(=O)c1ccccc1S(=O)(=O)NCC#N` yielded a melting point of 110 °C.
For `Nc1nc2c(ncn2C2CCC(CO)O2)c(=O)[nH]1` (stereo not drawn), the melting point was > 250 °C.
With `O=[N+]([O-])c1ccc(Oc2c(Cl)cc(S(=O)(=O)NC(=NO)Nc3ccc(Cl)cc3)cc2Cl)c(Cl)c1` the melting point was 180 °C.
`FC(F)(F)c1ccc(-c2cc(C(F)(F)F)n3ncc(-c4ccccn4)c3n2)cc1` showed a melting point of 202 °C.
With `CCCCNCc1cc(N)c(Cc2ccccc2)c(S(N)(=O)=O)c1` the melting point was 141 to 143 °C.
In the case of `CCOC(=O)c1cc2c(nc1CCl)CCCCC2`, the melting point is reported as 81 to 82 °C.
For `CCOc1nc(C)nc(N2CCN(c3ccc(F)cc3)CC2)c1[N+](=O)[O-]`, the melting point was 116 to 119 °C.
`O=C(c1ccccc1)c1c(O)c(=O)ccn1CCO` gave a melting point of 195 to 200 °C.
With `Cc1cc(NC(=O)c2cnoc2C2CC2)ccc1Br` the melting point was 133 to 135 °C.
`OCC(O)Cc1nccn1CCCc1cccc(OCc2coc(/C=C/c3ccc(C(F)(F)F)cc3)n2)c1` (stereo not drawn) showed a melting point of 102 to 104 °C.
For `CC(C)CCCC(C)NC(=O)Oc1ccc2oc3ccccc3c2c1` (stereo not drawn), the melting point was 114 to 115 °C.
Work on `CC(=O)NCc1nc(-c2ccc3c(c2)Nc2ccccc2S3)cs1` yielded a melting point of 219 to 221 °C.
`CC1(C)NC(=S)C1(C)C` showed a melting point of 117 to 118 °C.
In the case of `CCCCP(=O)(O)CC(C)(O)CN` (stereo not drawn), the melting point is reported as 187 to 189 °C.
With `O=C(Nc1ccc2[nH]c(=O)[nH]c2c1)C(=O)N1CCC(Cc2ccc(Cl)cc2)CC1` the melting point was 299 to 300 °C.
With `Cc1cc(-c2cnn3c(C(F)(F)F)cc(-c4ccc(C(F)(F)F)c(OCC(F)(F)F)c4)nc23)ccn1` the melting point was 201 °C.
With `CCOC(=O)c1cnc(Nc2ccccc2O)[nH]c1=O` the melting point was 289 to 291 °C.
Compound `CCc1noc(-c2cn(-c3cccc(Oc4ccc(N)cc4)c3)cn2)n1` has a melting point of 131 to 133 °C.
In the case of `O=C(O)C(Br)C(O)c1cccc([N+](=O)[O-])c1` (stereo not drawn), the melting point is reported as 124 to 125 °C.
Compound `CSC1NC(=O)N(C(C)C)C(=O)N1N=C(C)C` (stereo not drawn) has a melting point of 110 to 112 °C.
Work on `CN(C)n1cnnc1NN=Cc1c(Cl)cccc1Cl` yielded a melting point of 189 °C.
In the case of `Cc1nnc2n1-c1sc(C#CCn3c(=O)c4ccccc4c4ccccc43)cc1C(c1ccccc1Cl)=NC2`, the melting point is reported as 247 to 249 °C.
Work on `CN(c1cccc(C(F)(F)F)c1)c1nc2c(-c3cccc(C(=O)O)c3)cccc2n1C` yielded a melting point of 211 to 212 °C.
Compound `CCCN[C@@H](Cc1ccc(OCCNC(=O)c2ccc(-c3ccccn3)cc2)cc1)C(=O)O` has a melting point of 242 to 244 °C.
`Cc1nc(NC(=O)C2=C(O)c3ccc4ccccc4c3S(=O)(=O)N2C)sc1C` showed a melting point of 264 to 265 °C.
For `O=S(=O)(c1ccccc1)n1ccc2c(CBr)cccc21`, the melting point was 127 to 128 °C.
`CCOC(=O)COc1ccc(Br)cc1C1C(C(=O)OCC)=C(C)NC(C)=C1C(=O)OCC` showed a melting point of 153 to 154 °C.
`Cc1nc(N2CCN(Cc3ccc(OC(F)(F)F)cc3)C2=O)sc1C(=O)NC[C@H](O)c1ccccc1` gave a melting point of 149 to 151 °C.
Work on `Cc1c(-c2ccccc2)oc2c(CCl)cccc2c1=O` yielded a melting point of 112 to 113 °C.
Work on `COc1ccc(C=CS(=O)(=O)N2C(=O)CCC2OC(C)C)cc1` (stereo not drawn) yielded a melting point of 101 to 103 °C.
With `N=C(N)c1ccc(-n2cnn(-c3ccc(CCC(=O)O)cc3)c2=O)cc1` the melting point was 313 to 316 °C.
With `CN1C(=O)OC[C@H]1Cc1ccccc1` the melting point was 75 to 77 °C.
`CC(C)(CF)C(=O)Cn1cncn1` showed a melting point of 59 °C.
In the case of `Cc1ccc(CNC(=O)c2ccc3n2Cc2ccccc2N(C(=O)CSc2ccc(Br)cc2)C3)cc1`, the melting point is reported as 131 to 132 °C.
Compound `CCC(C)(C)c1cc(-c2cc(F)cc(C=C3SC(N4CCOCC4)=NC3=O)c2)ccc1O` has a melting point of 210 to 212 °C.
With `COc1ccc(C(=O)c2cc(C(C)(C)C)c(O)c(C(C)(C)C)c2)cc1` the melting point was 141 to 142 °C.
In the case of `CCCC(=O)NC1CCc2ccccc2C1` (stereo not drawn), the melting point is reported as 78 to 81 °C.
`COC(=O)c1cccc(-c2ccc3c(c2)NCC3)c1` gave a melting point of 104 to 105 °C.
`CC(=O)NCc1ccc(CN2CCN(c3ccccn3)CC2)cc1` gave a melting point of 100 to 101 °C.
Work on `CCOC(=O)C(C)Oc1cc(-n2c(=O)cc(C(F)(F)F)n(C)c2=O)c(F)cc1Cl` (stereo not drawn) yielded a melting point of 72 to 74 °C.
`O=C1Nc2cccc(Br)c2C(=O)N2CCC[C@@H]12` gave a melting point of 221 to 224 °C.
Work on `CCOCCOc1ccc(CCNC(=O)/C=C/c2cccs2)cc1S(N)(=O)=O` yielded a melting point of 52 °C.
With `Cc1cccc(C(=O)O)c1NC(=S)Cc1ccccc1` the melting point was 148 to 150 °C.
With `CC(C)c1ccc([N+](=O)[O-])c(C(C)C)c1NC(=O)CN1CCN(CCSc2nc3cccc([N+](=O)[O-])c3o2)CC1` the melting point was 70 to 72 °C.
Work on `CCOC(=O)c1c(C)cc2cnc(-c3ccccc3Cl)nc2c1C` yielded a melting point of 69.5 to 70.5 °C.
Compound `CCOC(=O)c1ccc(/C=C(\C)c2ccc(O)c(C3(C)CCCCC3)c2)cc1` has a melting point of 124 °C.
`Cc1c(-c2ccccc2)n(Cc2ccccc2)c2ccc(-c3ccc(OCC#N)cc3)cc12` gave a melting point of 140 °C.
Compound `CN1C(=O)C(Cc2ccncc2)(Cc2ccncc2)NC1=S` has a melting point of 225 to 227 °C.
For `Oc1cc2ccccc2cc1OCCOc1ccccc1`, the melting point was 141 to 142 °C.
`COc1ccc(NC(C)c2oc3ccc(F)cc3c(=O)c2-c2cccc(F)c2)cc1` (stereo not drawn) gave a melting point of 152 to 156 °C.
Compound `Oc1ccc(N=C2SCS2)cc1` has a melting point of 162 to 163 °C.
`c1ccc(C2CC3(CC(c4ccccc4)N2)OCCO3)cc1` (stereo not drawn) gave a melting point of 125 to 127 °C.
`O=C(NCc1ccc(-c2n[nH]c3c2Cc2ccccc2-3)s1)N1CCOCC1` showed a melting point of 240 to 247 °C.
With `COc1cc(C2CCN(C3COC3)CC2)ccc1Nc1ncc2ccc(-c3ccccc3OC)n2n1` the melting point was 78 to 85 °C.
Compound `COc1cc(C(C)=O)ccc1OCCCCN1CCC(c2nsc3ccccc23)CC1` has a melting point of 78 to 80 °C.
In the case of `COc1cccc(Cn2cnc3c(-c4ccco4)nc(Cl)nc32)c1`, the melting point is reported as 160 to 161 °C.
With `CCOc1ccnc(N2CCN(C(=O)c3ccccc3C=O)CC2)n1` the melting point was 134 to 136 °C.
In the case of `CC1COc2c(F)c(Cl)cc3c(=O)c(C(=O)O)cn1c23` (stereo not drawn), the melting point is reported as > 300 °C.
Work on `Cc1nc2c3c(ccn2c1C)[C@@](C)(O)[C@H](O)[C@@H](c1ccccc1)N3` yielded a melting point of 137 to 138 °C.
Work on `COC(=O)c1cc(OCC=C(Cl)Cl)cc(Cl)c1OCC=C(Cl)Cl` yielded a melting point of 63 °C.
Compound `CCOC(=O)C1(C)CN(Cc2ccccc2)C(=O)C(=C2SC=CS2)C1=O` (stereo not drawn) has a melting point of 111 to 113 °C.
Compound `CCOC(=O)CNC(=O)c1c(Cl)c2cc(Oc3ccc(C(F)(F)F)cc3)ccc2n1-c1ccc(OC(C)C)cc1` has a melting point of 80 to 81 °C.
`Oc1cc(C(F)(F)F)nn1-c1ccccc1` gave a melting point of 190 to 192 °C.
With `Cc1cccc(C2=CCN(CCCn3c(=O)[nH]c4c(Cl)cccc4c3=O)CC2)c1` the melting point was 214 to 216 °C.
With `O=C(O)c1ccc(COCc2csc3nc(C(=O)NCc4ccc(F)c(C(F)(F)F)c4)[nH]c(=O)c23)cc1` the melting point was 258 to 259 °C.
In the case of `O=[N+]([O-])c1ccc(CP2(=O)OCCCCO2)cc1`, the melting point is reported as 136 to 137 °C.
Compound `CCc1n[nH]c(C(N)=O)c1NC(=O)c1cc(S(C)(=O)=O)ccc1OCC(C)C` has a melting point of 154 to 162 °C.
For `CC(C)(C)OC(=O)Nc1ccc2c(c1)OCC(=O)N2`, the melting point was 200 to 203 °C.
Compound `CC=C1CCC2C3CCC4CC(O)C(OCC)CC4(C)C3C(N)CC12C` (stereo not drawn) has a melting point of 65 to 70 °C.
In the case of `CC(C)CC(NC(=O)c1ccc(Cl)cc1)NC(=NC#N)Nc1cccnc1` (stereo not drawn), the melting point is reported as 193 to 194 °C.
`CCOc1nc(O)nn1CC` gave a melting point of 64 to 67 °C.
Compound `CN(C)c1nc(NCc2ccc(NC(=O)c3ccc(F)cc3)cc2)c2ccc(CO)cc2n1` has a melting point of 158 °C.
In the case of `CS(=O)(=O)c1ccc(Oc2ccc(CC(=O)O)cc2)cc1`, the melting point is reported as 122 to 125 °C.
Work on `Cc1ccc(-c2cnccn2)cc1` yielded a melting point of 54 to 55 °C.
`Cn1cnc2c1c(=O)n(CCCCC(=O)CBr)c(=O)n2C` showed a melting point of 125 to 135 °C.
Compound `COC(=O)N[C@H]1Cc2ccc(N)cc2C1` has a melting point of 140 to 142 °C.
With `CCNC(=O)N1CC(Oc2cccc(C(F)(F)F)c2)C1` the melting point was 125 to 126 °C.
With `N#Cc1cccc2c1CC(Br)C2=O` (stereo not drawn) the melting point was 124 °C.
`CCCCn1c(O)cc(C)c(C#N)c1=O` showed a melting point of 218 to 222 °C.
For `O=C(Nc1nc(C(C(=O)O)=C(Cl)C(=O)OCc2ccccc2)cs1)OCc1ccccc1`, the melting point was 173 to 174 °C.
Compound `O=C1Nc2cc(Cl)cc(Cl)c2C1=O` has a melting point of 228 to 230 °C.
For `Cn1cnc2c1C(=O)N1CCN=C1N2Cc1ccc(Cl)cc1`, the melting point was 182 to 184 °C.
With `Fc1cccc(F)c1C(C1=NOCCO1)N1CCc2sccc2C1` (stereo not drawn) the melting point was 151 to 153 °C.
In the case of `CCCn1c(=O)c2[nH]c(CCCc3ccccc3)nc2n(CCC)c1=O`, the melting point is reported as 137 to 138 °C.
For `Cc1nc(N)c2nc(C)n(CCOCc3ccccc3)c2c1C`, the melting point was 137 to 138 °C.
Compound `CN1CCN(c2cccc3ccc(-n4cnc5ncccc54)cc23)CC1` has a melting point of 107 to 112 °C.
`CCOC(=O)C(=O)Nc1ccc(C(=O)O)cc1NC(=O)C(=O)OCC` gave a melting point of 251 °C.
Compound `CCOC(C)n1cnc(-c2ccc(F)cc2)c1-c1ccc(F)cc1` (stereo not drawn) has a melting point of 105 to 107 °C.
For `CCc1nn(-c2ccc(C(=N)N)cc2)c(=O)n1-c1ccc(CCC(=O)O)cc1`, the melting point was > 250 °C.
Work on `O=C(c1ccccc1)c1cc(Cl)cc2c(=O)cc[nH]c12` yielded a melting point of 193 to 196 °C.
Work on `CCC(C)(C)c1cc(C(=O)CI)cc(C(C)(C)CC)c1O` yielded a melting point of 76 to 77 °C.
With `COc1ccc(-c2cc3nc(N4CCC4)c4ccccc4c3nn2)cc1` the melting point was 196 to 198 °C.
For `CCCc1nc2c(N)nc3ccccc3c2n1CC(C)(C)CC(C)=NOC`, the melting point was 196 to 198 °C.
With `O=[N+]([O-])c1ccc(NN=C2c3ncc(Cl)cc3C=CC2Cl)c([N+](=O)[O-])c1` (stereo not drawn) the melting point was > 280 °C.
`CN(C=C(S(=O)(=O)c1ccccc1)S(=O)(=O)c1ccccc1)c1ccc(Cl)cn1` gave a melting point of 205 to 206 °C.
For `O=C(c1ccc(Cl)cc1)C(Cn1cncn1)c1ccc(Cl)cc1` (stereo not drawn), the melting point was 126 to 128 °C.
